# Assay results published in US9220243B2, “Models of atherosclerosis, hyperlipidemia, lipoprotein oxidation and blood vessel inflammation and methods for making and using them” (THE REGENTS OF THE UNIVERSITY OF CALIFORNIA, priority 2006, dated 2015).
# Tested on: Fli:EGFP zebrafish larvae
# Assay: High fat diet zebrafish larvae model with fluorescent cholesterol ester, ezetimibe added to the tank water, confocal imaging
# Type: in vivo, zebrafish (Danio rerio)
# Conditions: 10 days on high fat diet with fluorescent (red) cholesterol ester
# Method: Spray cholesterol (4% in ether) on the fish food, let it dry for 2 hours in a fume hood. Collect and keep at 4° C. Feed the fish with high-cholesterol food for 7 days to 8 weeks.
# To visualize the lipid in larvae zebrafish, add to the cholesterol ether solution 10 μg/ml of cholesteryl BODIPY 576/589 C11 (Invitrogen, C12681). […] Feed fli:EGFP zebrafish with this high-cholesterol diet for one week.
# Use a fluorescent confocal microscope to image dorsal aorta of a fli:EGFP zebrafish (wild type or ApoE knockdown) that was placed on a high-cholesterol diet, and compare with a control zebrafish that was fed a normal diet.
# Visualize using a C1si confocal microscope: • endothelial cell morphology and the morphology of the vessel • accumulation of fluorescent lipid in the artery wall
# FIG. 5. Ezetimibe reduces cholesterol absorption in zebrafish intestine (A) and prevents vascular damage (B). Fli:EGFP zebrafish larvae were feeding for 10 days on high fat diet with a fluorescent (red) cholesterol ester, with or without the addition of ezetimibe in the tank water. Ezetimibe, or (3R,4S)-1-(4-fluorophenyl)-3-((3S)-3-(4-fluorophenyl)-3-hydroxypropyl)-4-(4-hydroxyphenyl)-2-azetidinone, is an FDA-approved medicine (marketed as ZETIA™), which inhibits the absorption of cholesterol by the small intestine. […] Remarkably, ezetimibe rescued blood vessels from high fat diet-induced damage.
structure (smiles),measurement,setting,value
"O=C1[C@H](CC[C@H](O)c2ccc(F)cc2)[C@@H](c2ccc(O)cc2)N1c1ccc(F)cc1 [Ezetimibe, (3R,4S)-1-(4-fluorophenyl)-3-((3S)-3-(4-fluorophenyl)-3-hydroxypropyl)-4-(4-hydroxyphenyl)-2-azetidinone]",level of cholesterol accumulated in the digestive system (intensity of red fluorescence),FIG. 5(A),considerably reduced a level of cholesterol accumulated in the digestive system
same,pathological changes in the endothelial layer morphology inflicted by high fat diet (vascular damage),FIG. 5(B),prevented pathological changes in the endothelial layer morphology
